In patent US10577363B2, “Substituted piperidine compounds” (EPIZYME, INC., priority 2014, dated 2020) one finds IC50 data, which are given here for 33 compounds.

The target in the assay is SMYD3 (Homo sapiens (Human), UniProt Q9H7B4). Description: SMYD3 biochemical assay (SPA, 3H-SAM methylation of MEKK2 protein substrate). Particulars: read-out: SMYD3 Biochem IC50 (μM)*. In outline:
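Tritium incorporation into GST-MEKK2 is counted by scintillation proximity after citric acid bead capture. Native human SMYD3 is preincubated with test compound for 30 min at room temperature at pH 8.0 (Tris-Cl, TCEP, BSG, Tween 20) before 3H-SAM and substrate are added; cold SAM at 100 uM final stops turnover.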

What is called IC50 is the concentration at which inhibition is half-maximal. With `C[C@H]1CC(NC(=O)c2cc(C3CC3)on2)CCN1C(=O)[C@H]1CC[C@H](N)CO1` (stereo partly drawn) [compound 131, N-((2S)-1-((2R,5S)-5-aminotetrahydro-2H-pyran-2-carbonyl)-2-methylpiperidin-4-yl)-5-cyclopropylisoxazole-3-carboxamide], the IC50 came to 2.08 µM. As to `C[C@H]1CC(NC(=O)c2cc(C3CC3)on2)CCN1C(=O)C1CCCNC1` (stereo partly drawn) [compound 132, 5-cyclopropyl-N-((2S)-2-methyl-1-(piperidine-3-carbonyl)piperidin-4-yl)isoxazole-3-carboxamide], the IC50 is 5.55 µM. In the case of `C[C@H]1CC(NC(=O)c2cc(C3CC3)on2)CCN1C(=O)C[C@H](O)CCN` (stereo partly drawn) [compound 133, N-((2S)-1-((R)-5-amino-3-hydroxypentanoyl)-2-methylpiperidin-4-yl)-5-cyclopropylisoxazole-3-carboxamide], the IC50 was determined as 6.24 µM. In the case of `C[C@@H]1CC(NC(=O)c2cc(C3CC3)on2)CCN1C(=O)C[C@H](O)CCN` (stereo partly drawn) [compound 134, N-((2R)-1-((R)-5-amino-3-hydroxypentanoyl)-2-methylpiperidin-4-yl)-5-cyclopropylisoxazole-3-carboxamide], the IC50 is 1.86 µM. As for `C[C@@H]1CC(NC(=O)c2cc(C3CC3)on2)CCN1C(=O)C1CNCC(O)C1` (stereo partly drawn) [compound 135, 5-cyclopropyl-N-((2R)-1-(5-hydroxypiperidine-3-carbonyl)-2-methylpiperidin-4-yl)isoxazole-3-carboxamide], the IC50 is 2.49 µM. As to `C[C@@H]1CC(NC(=O)c2cc(C3CC3)on2)CCN1C(=O)C1CC12CCNCC2` (stereo partly drawn) [compound 136, 5-cyclopropyl-N-((2R)-2-methyl-1-(6-azaspiro[2.5]octane-1-carbonyl)piperidin-4-yl)isoxazole-3-carboxamide], the IC50 amounted to 0.759 µM. As for `C[C@@H]1CC(NC(=O)c2cc(C3CC3)on2)CCN1C(=O)[C@H]1CC[C@H](O)CC1` (stereo partly drawn) [compound 137, 5-cyclopropyl-N-((2R)-1-((1r,4R)-4-hydroxycyclohexane-1-carbonyl)-2-methylpiperidin-4-yl)isoxazole-3-carboxamide], the IC50 amounted to 41.2 µM.

As to `C[C@H]1CC(NC(=O)c2cc(C3CC3)on2)CCN1C[C@H]1CC[C@H](N)CC1` (stereo partly drawn) [compound 138, N-((2S)-1-(((1r,4S)-4-aminocyclohexyl)methyl)-2-methylpiperidin-4-yl)-5-cyclopropylisoxazole-3-carboxamide], the IC50 is 4.31 µM. As to `C[C@@H]1CC(NC(=O)c2cc(C3CC3)on2)CCN1C(=O)[C@H]1CC[C@H](N(C)C)CC1` (stereo partly drawn) [compound 139, 5-cyclopropyl-N-((2R)-1-((1r,4R)-4-(dimethylamino)cyclohexane-1-carbonyl)-2-methylpiperidin-4-yl)isoxazole-3-carboxamide], the IC50 came to 1.65 µM. `CC1CNCCC1CC(=O)N1CCC(NC(=O)c2cc(C3CC3)on2)C[C@H]1C` (stereo partly drawn) [compound 140, 5-cyclopropyl-N-((2R)-2-methyl-1-(2-(3-methylpiperidin-4-yl)acetyl)piperidin-4-yl)isoxazole-3-carboxamide]: the half-inhibitory concentration (IC50) amounted to 0.842 µM. On to `CC1CC(CC(=O)N2CCC(NC(=O)c3cc(C4CC4)on3)C[C@@H]2C)CCN1` (stereo partly drawn) [compound 141, 5-cyclopropyl-N-((2S)-2-methyl-1-(2-(2-methylpiperidin-4-yl)acetyl)piperidin-4-yl)isoxazole-3-carboxamide], for which the IC50 worked out at 3.53 µM. Under `C[C@H]1CC(NC(=O)c2cc(C3CC3)on2)CCN1C(=O)CCCN` (stereo partly drawn) [compound 142, N-((2S)-1-(4-aminobutanoyl)-2-methylpiperidin-4-yl)-5-cyclopropylisoxazole-3-carboxamide] stands 3.65 µM.

With `C[C@@H]1CC(NC(=O)c2cc(C3CC3)on2)CCN1C(=O)[C@H]1CCC[C@@H](N)C1` (stereo partly drawn) [compound 143, N-((2R)-1-((1S,3R)-3-aminocyclohexane-1-carbonyl)-2-methylpiperidin-4-yl)-5-cyclopropylisoxazole-3-carboxamide], the IC50 was determined as 1.99 µM. Take `C[C@@H]1CC(NC(=O)c2cc(C3CC3)on2)CCN1C(=O)C1CC2(CCNC2)C1` (stereo partly drawn) [compound 144, 5-cyclopropyl-N-((2R)-2-methyl-1-(6-azaspiro[3.4]octane-2-carbonyl)piperidin-4-yl)isoxazole-3-carboxamide]: the IC50 worked out at 0.546 µM. Then `N[C@@H]1CC[C@@H](C(=O)N2CCC(NC(=O)c3cc(C4CC4)on3)CC2)C1` [compound 145, N-(1-((1R,3R)-3-aminocyclopentane-1-carbonyl)piperidin-4-yl)-5-cyclopropylisoxazole-3-carboxamide], with 5.98 µM; and `C[C@@H]1CN(C(=O)[C@H]2CC[C@H](N)CC2)CC[C@H]1NC(=O)c1cc(C2CC2)on1` [compound 146, N-((3R,4R)-1-((1r,4R)-4-aminocyclohexane-1-carbonyl)-3-methylpiperidin-4-yl)-5-cyclopropylisoxazole-3-carboxamide], with 2.28 µM.

For the compound `C[C@@H]1CN(C(=O)CC2CCNCC2)CC[C@H]1NC(=O)c1cc(C2CC2)on1` [compound 147, 5-cyclopropyl-N-((3R,4R)-3-methyl-1-(2-(piperidin-4-yl)acetyl)piperidin-4-yl)isoxazole-3-carboxamide], the IC50 was 1.53 µM. On to `CC1(NC(=O)c2cc(C3CC3)on2)CCN(C(=O)[C@H]2CC[C@H](N)CC2)CC1` [compound 150, N-(1-((1r,4r)-4-aminocyclohexane-1-carbonyl)-4-methylpiperidin-4-yl)-5-cyclopropylisoxazole-3-carboxamide], for which the IC50 is 0.91 µM. Consider `CCOC(=O)C1CN(C(=O)[C@H]2CC[C@H](N)CC2)CCC1NC(=O)c1cc(C2CC2)on1` (stereo partly drawn) [compound 151, ethyl 1-((1r,4r)-4-aminocyclohexane-1-carbonyl)-4-(5-cyclopropylisoxazole-3-carboxamido)piperidine-3-carboxylate], for which the IC50 came out at 3.54 µM. For the compound `N[C@H]1CC[C@H](C(=O)N2CCC(NC(=O)c3cc(C4CC4)on3)C(F)(F)C2)CC1` (stereo partly drawn) [compound 152, N-(1-((1r,4r)-4-aminocyclohexane-1-carbonyl)-3,3-difluoropiperidin-4-yl)-5-cyclopropylisoxazole-3-carboxamide], the IC50 is 2.25 µM. Under `CC1(NC(=O)c2cc(C3CC3)on2)CCN(C(=O)CC2CCNCC2)CC1` [compound 153, 5-cyclopropyl-N-(4-methyl-1-(2-(piperidin-4-yl)acetyl)piperidin-4-yl)isoxazole-3-carboxamide] stands 0.848 µM. In the case of `O=C(NC1CCN(C(=O)CC2CCNCC2)CC1(F)F)c1cc(C2CC2)on1` (stereo not drawn) [compound 154, 5-cyclopropyl-N-(3,3-difluoro-1-(2-(piperidin-4-yl)acetyl)piperidin-4-yl)isoxazole-3-carboxamide], the IC50 is 1.56 µM.

Regarding `CC1(C)CN(C(=O)[C@H]2CC[C@H](N)CC2)CCC1NC(=O)c1cc(C2CC2)on1` (stereo partly drawn) [compound 155, N-(1-((1r,4r)-4-aminocyclohexane-1-carbonyl)-3,3-dimethylpiperidin-4-yl)-5-cyclopropylisoxazole-3-carboxamide], the IC50 stood at 0.575 µM.

Turning to `CC1(C)CN(C(=O)CC2CCNCC2)CCC1NC(=O)c1cc(C2CC2)on1` (stereo not drawn) [compound 157, 5-cyclopropyl-N-(3,3-dimethyl-1-(2-(piperidin-4-yl)acetyl)piperidin-4-yl)isoxazole-3-carboxamide], the IC50 amounted to 0.521 µM. With `CC1(NC(=O)c2cc(C3CC3)on2)CCN(C(=O)CCCN)CC1` [compound 158, N-(1-(4-aminobutanoyl)-4-methylpiperidin-4-yl)-5-cyclopropylisoxazole-3-carboxamide], the IC50 was determined as 7.34 µM.

Regarding `CCOC(=O)[C@@H]1CC(NC(=O)c2cc(C3CC3)on2)CCN1C(=O)CCCN` (stereo partly drawn) [compound 159, ethyl (2S)-1-(4-aminobutanoyl)-4-(5-cyclopropylisoxazole-3-carboxamido)piperidine-2-carboxylate], the IC50 turned out to be 25.2 µM.

As for `CCOC(=O)C1CN(C(=O)CCCN)CCC1NC(=O)c1cc(C2CC2)on1` (stereo not drawn) [compound 160, ethyl 1-(4-aminobutanoyl)-4-(5-cyclopropylisoxazole-3-carboxamido)piperidine-3-carboxylate], the IC50 amounted to 2.23 µM.

For `CC1(C)CN(C(=O)CCCN)CCC1NC(=O)c1cc(C2CC2)on1` (stereo not drawn) [compound 161, N-(1-(4-aminobutanoyl)-3,3-dimethylpiperidin-4-yl)-5-cyclopropylisoxazole-3-carboxamide], the 50% inhibitory concentration (IC50) was found to be 1.25 µM.

For the compound `N[C@H]1CC[C@H](C(=O)N2CCC(NC(=O)c3cc(C4CC4)on3)C[C@H]2c2ccccc2)CC1` (stereo partly drawn) [compound 162, N-((2S)-1-((1r,4S)-4-aminocyclohexane-1-carbonyl)-2-phenylpiperidin-4-yl)-5-cyclopropylisoxazole-3-carboxamide], the IC50 is over 10 µM. For the compound `N[C@H]1CC[C@H](C(=O)N2CCC(NC(=O)c3cc(C4CC4)on3)C[C@@H]2c2ccccc2)CC1` (stereo partly drawn) [compound 163, N-((2R)-1-((1r,4R)-4-aminocyclohexane-1-carbonyl)-2-phenylpiperidin-4-yl)-5-cyclopropylisoxazole-3-carboxamide], the IC50 was determined as 7.17 µM. Regarding `C[C@@H]1CC(NC(=O)c2cc(C3CC3)on2)CCN1C(=O)C(C)(C)C1CCNCC1` (stereo partly drawn) [compound 164, 5-cyclopropyl-N-((2R)-2-methyl-1-(2-methyl-2-(piperidin-4-yl)propanoyl)piperidin-4-yl)isoxazole-3-carboxamide], the IC50 worked out at 5.91 µM. On to `C[C@H]1CC(NC(=O)c2cc(C3CC3)on2)CCN1C(=O)C(C)(C)C1CCNCC1` (stereo partly drawn) [compound 165, 5-cyclopropyl-N-((2S)-2-methyl-1-(2-methyl-2-(piperidin-4-yl)propanoyl)piperidin-4-yl)isoxazole-3-carboxamide], for which the IC50 is 4.73 µM.

For `CC1CC(CC(=O)N2CCC(NC(=O)c3cc(C4CC4)on3)C[C@H]2C)CCN1` (stereo partly drawn) [compound 166, 5-cyclopropyl-N-((2R)-2-methyl-1-(2-(2-methylpiperidin-4-yl)acetyl)piperidin-4-yl)isoxazole-3-carboxamide], the IC50 was 0.506 µM.
